Experimental data reported in patent US9440978B2, “Imidazolo-, oxazolo-, and thiazolopyrimidine modulators of TRPV1” (Janssen Pharmaceutica NV, priority 2007, dated 2016).
Where a name gives a salt, the structure may show the parent alone.

Legend:
human TRPV1 = target: T1, human TRPV1 (Homo sapiens, UniProt Q8NER1); test: Block of capsaicin-induced Ca2+ influx, human assay (hTRPV1/HEK293, FLIPR); type: cell-based; conditions: HEK293 cells transfected with human TRPV1; 150 nM capsaicin challenge; mean; > value = solubility limit in assay medium
T1 construct: expressed in transfected cells; host or cells: HEK293
Description: (§1) HEK293 cells were transfected with human TRPV1 cloned in pcDNA3.1zeo(+) using the Effectene non-liposomal lipid based transfection kit (Qiagen) (hTRPV1/HEK293). hTRPV1/HEK293 cells were routinely grown as monolayers under selection in zeocin (200 μg/mL; Invitrogen) in Dulbecco's Modified Eagle Medium (DMEM, Gibco BRL) supplemented with 10% fetal bovine serum, and penicillin/streptomycin (50 units/mL) in 5% CO2 at 37° C. Cells were passaged frequently, every 3-5 days, to avoid overgrowth, depletion of essential medium components, or acidic medium exposure. Cells were passaged using a brief wash in 0.05% trypsin with 1 mM EDTA, followed by dissociation in divalent-free phosphate-buffered saline (Hyclone #SH30028.02). […] The assay buffer was composed of 130 mM NaCl, 2 mM KCl, 2 mM MgCl2, 10 mM HEPES, 5 mM glucose, and either 2 mM or 20 μM CaCl2. On the day of the experiment, the culture medium was replaced with 2 mM calcium assay buffer using an automated plate washer (ELx405; Biotek, VT). […] After loading the cells, the dye solution was replaced with 50 μL/well of 20 μM calcium assay buffer using the ELx405 plate washer. Test compounds (50 μL/well) were added to the plate and incubated for 30 min. Intracellular Ca^2+ levels were subsequently assayed using a Fluorometric Imaging Plate Reader (FLIPR™ instrument, Molecular Devices, CA) to simultaneously monitor Fluo-3 fluorescence in all wells (λexcitation=488 nm, λemission=540 nm) during challenge with agonist (capsaicin). The IC50 values were determined. […] The contents of the wells were mixed 3 times (40 μL mix volume) immediately after the additions were made. Concentration-dependence of block was determined by exposing each well of cells in duplicate rows of a 96-well plate to a serial dilution of test compound. The concentration series usually started at 10 μM with a three-fold serial decrement in concentration. The magnitude of the capsaicin response was determined by measuring the change in fluo3 fluorescence before and 100 seconds after the addition of the agonist. Data were analyzed using a non-linear regression program (Origin; OriginLab, MA).
(§2) IC50 values shown are the average (mean) of the results obtained. […] Compounds were tested as in the free base, trifluoroacetic acid salt, or hydrochloride salt form.

rat TRPV1 = target: T2, rat TRPV1 (Rattus norvegicus, UniProt O35433); test: Block of capsaicin-induced Ca2+ influx, rat assay (rTRPV1/HEK293, FLIPR); type: cell-based; conditions: HEK293 cells transfected with rat TRPV1; capsaicin challenge; mean; > value = solubility limit in assay medium; read-out: Rat IC50
T2 construct: expressed in transfected cells; host or cells: HEK293
Description: as §1
This assay was performed similarly to the human assay described above, but using HEK293 cells transfected with rat TRPV1 (rTRPV1/HEK293).
as §2

T2 sequence (O35433 whole entry): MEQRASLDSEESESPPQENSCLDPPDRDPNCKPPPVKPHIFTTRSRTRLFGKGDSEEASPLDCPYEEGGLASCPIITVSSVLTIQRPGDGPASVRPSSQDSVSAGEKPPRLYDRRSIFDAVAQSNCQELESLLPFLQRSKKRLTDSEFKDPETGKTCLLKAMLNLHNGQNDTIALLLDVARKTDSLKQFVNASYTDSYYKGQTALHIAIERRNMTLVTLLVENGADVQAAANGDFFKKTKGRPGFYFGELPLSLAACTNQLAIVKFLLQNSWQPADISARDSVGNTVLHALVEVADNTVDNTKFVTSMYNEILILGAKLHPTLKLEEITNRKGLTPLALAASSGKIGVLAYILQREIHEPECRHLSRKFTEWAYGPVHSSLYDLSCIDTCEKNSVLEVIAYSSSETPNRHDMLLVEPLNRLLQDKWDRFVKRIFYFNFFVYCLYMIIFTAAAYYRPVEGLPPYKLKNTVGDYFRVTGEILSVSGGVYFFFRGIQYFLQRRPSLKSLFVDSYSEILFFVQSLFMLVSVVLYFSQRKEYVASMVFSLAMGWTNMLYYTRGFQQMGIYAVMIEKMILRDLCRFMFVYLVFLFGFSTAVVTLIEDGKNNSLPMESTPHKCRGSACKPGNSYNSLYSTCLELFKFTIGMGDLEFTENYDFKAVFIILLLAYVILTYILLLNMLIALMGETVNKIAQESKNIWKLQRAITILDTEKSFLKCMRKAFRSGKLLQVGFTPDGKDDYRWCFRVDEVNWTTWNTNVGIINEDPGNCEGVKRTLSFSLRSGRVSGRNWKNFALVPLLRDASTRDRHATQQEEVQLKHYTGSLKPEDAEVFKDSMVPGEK
T1 sequence (Q8NER1 whole entry): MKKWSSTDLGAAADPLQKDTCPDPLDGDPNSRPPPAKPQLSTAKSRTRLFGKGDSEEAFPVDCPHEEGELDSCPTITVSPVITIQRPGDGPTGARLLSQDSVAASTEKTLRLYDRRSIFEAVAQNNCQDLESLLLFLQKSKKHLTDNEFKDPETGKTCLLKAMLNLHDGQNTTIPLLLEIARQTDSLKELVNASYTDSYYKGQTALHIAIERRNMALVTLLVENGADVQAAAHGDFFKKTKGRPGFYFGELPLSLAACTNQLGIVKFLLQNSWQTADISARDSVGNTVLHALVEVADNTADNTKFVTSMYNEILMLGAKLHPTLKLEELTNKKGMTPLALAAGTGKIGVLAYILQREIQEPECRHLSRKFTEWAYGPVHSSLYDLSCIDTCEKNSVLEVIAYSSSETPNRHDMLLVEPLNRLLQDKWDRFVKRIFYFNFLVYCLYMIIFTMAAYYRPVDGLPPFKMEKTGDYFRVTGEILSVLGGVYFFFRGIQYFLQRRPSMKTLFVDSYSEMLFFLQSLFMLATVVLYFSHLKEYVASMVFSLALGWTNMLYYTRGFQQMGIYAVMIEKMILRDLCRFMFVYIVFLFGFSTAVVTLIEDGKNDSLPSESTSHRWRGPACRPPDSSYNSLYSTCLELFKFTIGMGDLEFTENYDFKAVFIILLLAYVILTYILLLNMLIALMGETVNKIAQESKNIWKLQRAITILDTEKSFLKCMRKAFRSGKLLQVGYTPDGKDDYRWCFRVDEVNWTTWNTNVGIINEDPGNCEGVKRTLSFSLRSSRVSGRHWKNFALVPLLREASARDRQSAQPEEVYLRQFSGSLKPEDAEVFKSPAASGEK

Compound	IC50 (human TRPV1)	IC50 (rat TRPV1)
FC(F)(F)c1ccc(Nc2ncnc3sc(Cc4cccc(Cl)c4)nc23)cn1 [Example 53, 2-(3-Chlorobenzyl)-N-[6-(trifluoromethyl)pyridin-3-yl][1,3]thiazolo[5,4-d]pyrimidin-7-amine]	336 nM	118 nM
Cc1cccc(C)c1Cc1nc2c(Nc3ccccc3)ncnc2s1 [Example 55, 2-(2,6-Dimethylbenzyl)-N-phenyl[1,3]thiazolo[5,4-d]pyrimidin-7-amine]	3440 nM	2860 nM
Cc1cccc(C)c1Cc1nc2c(Nc3ccc(Br)cc3)ncnc2s1 [Example 56, N-(4-Bromophenyl)-2-(2,6-dimethylbenzyl)[1,3]thiazolo[5,4-d]pyrimidin-7-amine]	714 nM	475 nM
Cc1cccc(C)c1Cc1nc2c(Nc3ccc(S(C)(=O)=O)cc3)ncnc2s1 [Example 61, 2-(2,6-Dimethylbenzyl)-N-[4-(methylsulfonyl)phenyl][1,3]thiazolo[5,4-d]pyrimidin-7-amine]	496 nM	253 nM
FC(F)(F)c1ccc(Nc2nc(N3CCOCC3)nc3sc(Cc4c(Cl)cccc4Cl)nc23)cc1 [Example 63, [2-(2,6-Dichloro-benzyl)-5-morpholin-4-yl-thiazolo[5,4-d]pyrimidin-7-yl]-(4-trifluoromethyl-phenyl)-amine]	> 6670 nM	3560 nM
CC1CCCN1c1nc(Nc2ccc(C(F)(F)F)cc2)c2nc(Cc3c(Cl)cccc3Cl)sc2n1 (centres unmarked) [Example 64, [2-(2,6-Dichloro-benzyl)-5-(2-methyl-pyrrolidin-1-yl)-thiazolo[5,4-d]pyrimidin-7-yl]-(4-trifluoromethyl-phenyl)-amine]	466 nM	323 nM
FC(F)(F)c1ccc(Nc2nc(NCCN3CCOCC3)nc3sc(Cc4c(Cl)cccc4Cl)nc23)cc1 [Example 65, 2-(2,6-Dichloro-benzyl)-N^5-(2-morpholin-4-yl-ethyl)-N^7-(4-trifluoromethyl-phenyl)-thiazolo[5,4-d]pyrimidine-5,7-diamine trifluoroacetic acid salt]	461 nM	266 nM
CC(C)C1CCCN1c1nc(Nc2ccc(C(F)(F)F)cc2)c2nc(Cc3c(Cl)cccc3Cl)sc2n1 (centres unmarked) [Example 68, [2-(2,6-Dichloro-benzyl)-5-(2-isopropyl-pyrrolidin-1-yl)-thiazolo[5,4-d]pyrimidin-7-yl]-(4-trifluoromethyl-phenyl)-amine]	2320 nM	1690 nM
FC(F)(F)c1ccc(Nc2nc(N3CCC(N4CCCC4)CC3)nc3sc(Cc4c(Cl)cccc4Cl)nc23)cc1 [Example 77, [2-(2,6-Dichloro-benzyl)-5-(4-pyrrolidin-1-yl-piperidin-1-yl)-thiazolo[5,4-d]pyrimidin-7-yl]-(4-trifluoromethyl-phenyl)-amine trifluoroacetic acid salt]	1120 nM	4340 nM
FC(F)(F)c1ccc(Nc2nc(NC3CC3)nc3sc(Cc4c(Cl)cccc4Cl)nc23)cc1 [Example 78, N^5-Cyclopropyl-2-(2,6-dichloro-benzyl)-N^7-(4-trifluoromethyl-phenyl)-thiazolo[5,4-d]pyrimidine-5,7-diamine]	316 nM	215 nM
CC(C)CN(CC(C)C)c1nc(Nc2ccc(C(F)(F)F)cc2)c2nc(Cc3c(Cl)cccc3Cl)sc2n1 [Example 80, 2-(2,6-Dichloro-benzyl)-N^5,N^5-diisobutyl-N^7-(4-trifluoromethyl-phenyl)-thiazolo[5,4-d]pyrimidine-5,7-diamine]	4650 nM	4040 nM
FC(F)(F)c1ccc(Nc2nc(NCc3cccnc3)nc3sc(Cc4c(Cl)cccc4Cl)nc23)cc1 [Example 85, 2-(2,6-Dichloro-benzyl)-N^5-pyridin-3-ylmethyl-N^7-(4-trifluoromethyl-phenyl)-thiazolo[5,4-d]pyrimidine-5,7-diamine trifluoroacetic acid salt]	433 nM	112 nM
FC(F)(F)c1ccc(Nc2nc(NCc3ccncc3)nc3sc(Cc4c(Cl)cccc4Cl)nc23)cc1 [Example 86, 2-(2,6-Dichloro-benzyl)-N^5-pyridin-4-ylmethyl-N^7-(4-trifluoromethyl-phenyl)-thiazolo[5,4-d]pyrimidine-5,7-diamine trifluoroacetic acid salt]	1070 nM	187 nM

More lines, in order of falling IC50 (human TRPV1), values ahead:

IC50 (human TRPV1)	IC50 (rat TRPV1)	Compound
310 nM	74 nM	FC(F)(F)c1ccc(Nc2nc(N3CCN(C4CCCC4)CC3)nc3sc(Cc4c(Cl)cccc4Cl)nc23)cc1 [Example 76, [5-(4-Cyclopentyl-piperazin-1-yl)-2-(2,6-dichloro-benzyl)-thiazolo[5,4-d]pyrimidin-7-yl]-(4-trifluoromethyl-phenyl)-amine trifluoroacetic acid salt]
263 nM	38 nM	FC(F)(F)c1ccc(Nc2nc(NCc3ccccn3)nc3sc(Cc4c(Cl)cccc4Cl)nc23)cc1 [Example 84, 2-(2,6-Dichloro-benzyl)-N^5-pyridin-2-ylmethyl-N^7-(4-trifluoromethyl-phenyl)-thiazolo[5,4-d]pyrimidine-5,7-diamine trifluoroacetic acid salt]
252 nM	88 nM	FC(F)(F)c1ccc(Nc2ncnc3sc(Cc4cccc(Cl)c4)nc23)cc1 [Example 54, 2-(3-Chlorobenzyl)-N-[4-(trifluoromethyl)phenyl][1,3]thiazolo[5,4-d]pyrimidin-7-amine]
252 nM	51 nM	Cc1cccc(C)c1Cc1nc2c(Nc3ccc(C(C)(C)C)cc3)ncnc2s1 [Example 57, N-(4-tert-Butylphenyl)-2-(2,6-dimethylbenzyl)[1,3]thiazolo[5,4-d]pyrimidin-7-amine]
249 nM	103 nM	FC(F)(F)c1ccc(Nc2nc(NCC3CC3)nc3sc(Cc4c(Cl)cccc4Cl)nc23)cc1 [Example 66, N^5-Cyclopropylmethyl-2-(2,6-dichloro-benzyl)-N^7-(4-trifluoromethyl-phenyl)-thiazolo[5,4-d]pyrimidine-5,7-diamine]
209 nM	204 nM	Cc1cccc(C)c1Cc1nc2c(Nc3ccc(S(=O)(=O)N4CCOCC4)cc3)ncnc2s1 [Example 60, 2-(2,6-Dimethylbenzyl)-N-[4-(morpholin-4-ylsulfonyl)phenyl][1,3]thiazolo[5,4-d]pyrimidin-7-amine]
139 nM	183 nM	Cc1cccc(C)c1Cc1nc2c(Nc3ccc(C(F)(F)F)nc3)ncnc2s1 [Example 59, 2-(2,6-Dimethylbenzyl)-N-[6-(trifluoromethyl)pyridin-3-yl][1,3]thiazolo[5,4-d]pyrimidin-7-amine]
136 nM	12 nM	CC(C)CN1CCN(c2nc(Nc3ccc(C(F)(F)F)cc3)c3nc(Cc4c(Cl)cccc4Cl)sc3n2)CC1 [Example 83, [2-(2,6-Dichloro-benzyl)-5-(4-isobutyl-piperazin-1-yl)-thiazolo[5,4-d]pyrimidin-7-yl]-(4-trifluoromethyl-phenyl)-amine trifluoroacetic acid salt]
104 nM	32 nM	FC(F)(F)c1ccc(Nc2nc(NC3CCC3)nc3sc(Cc4c(Cl)cccc4Cl)nc23)cc1 [Example 79, N^5-Cyclobutyl-2-(2,6-dichloro-benzyl)-N^7-(4-trifluoromethyl-phenyl)-thiazolo[5,4-d]pyrimidine-5,7-diamine]
75 nM	82 nM	Cc1cccc(C)c1Cc1nc2c(Nc3ccc(C(F)(F)F)cc3)ncnc2s1 [Example 58, 2-(2,6-Dimethylbenzyl)-N-[4-(trifluoromethyl)phenyl][1,3]thiazolo[5,4-d]pyrimidin-7-amine]
72 nM	32 nM	CS(=O)(=O)c1nc(Nc2ccc(C(F)(F)F)cc2)c2nc(Cc3c(Cl)cccc3Cl)sc2n1 [Example 62, [2-(2,6-Dichloro-benzyl)-5-methanesulfonyl-thiazolo[5,4-d]pyrimidin-7-yl]-(4-trifluoromethyl-phenyl)-amine]
31 nM	14 nM	CC(C)CNc1nc(Nc2ccc(C(F)(F)F)cc2)c2nc(Cc3c(Cl)cccc3Cl)sc2n1 [Example 69, 2-(2,6-Dichloro-benzyl)-N^5-isobutyl-N^7-(4-trifluoromethyl-phenyl)-thiazolo[5,4-d]pyrimidine-5,7-diamine]
